Laboratory results: PubChem BioAssay AID2060882 (Molecular Pharmacology Branch, DTP, NCI, 2025)
Each block holds one compound with its values, some of them ahead of it.

Test system: 898857-211-R-J1-PDC complex spheroids, growth % test/control
Assay: Anticancer human tumor 898857-211-R-J1-PDC patient-derived melanoma cell line growth inhibition [RAS]
Conditions: for IC50: curve of first compound; for viability, T/C: stronger effect = lower value
Summary of the method: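 Tumour cells grown as complex spheroids with HUVEC endothelial cells and mesenchymal stem cells, treated with RAS pathway inhibitor combinations. Each agent spans half-log steps from near clinical Cmax, or 10 microM where Cmax is unknown.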

[1] = second compound 0.000949 µM, first compound 0.0316 µM
[2] = second compound 0.000949 µM, first compound 0.1 µM
[3] = second compound 0.000949 µM, first compound 0.316 µM
[4] = second compound 0.000949 µM, first compound 1 µM
[5] = second compound 0.000949 µM, first compound 3.16 µM
[6] = second compound 0.000949 µM, first compound 10 µM
[7] = second compound 0.003 µM, first compound 0.0316 µM
[8] = second compound 0.003 µM, first compound 0.1 µM
[9] = second compound 0.003 µM, first compound 0.316 µM
[10] = second compound 0.003 µM, first compound 1 µM
[11] = second compound 0.003 µM, first compound 3.16 µM
[12] = second compound 0.003 µM, first compound 10 µM
[13] = second compound 0.00949 µM, first compound 0.0316 µM
[14] = second compound 0.00949 µM, first compound 0.1 µM
[15] = second compound 0.00949 µM, first compound 0.316 µM
[16] = second compound 0.00949 µM, first compound 1 µM
[17] = second compound 0.00949 µM, first compound 3.16 µM
[18] = second compound 0.00949 µM, first compound 10 µM
[19] = second compound 0.03 µM, first compound 0.0316 µM
[20] = second compound 0.03 µM, first compound 0.1 µM
[21] = second compound 0.03 µM, first compound 0.316 µM
[22] = second compound 0.03 µM, first compound 1 µM
[23] = second compound 0.03 µM, first compound 3.16 µM
[24] = second compound 0.03 µM, first compound 10 µM
[25] = second compound 0.0949 µM, first compound 0.0316 µM
[26] = second compound 0.0949 µM, first compound 0.1 µM
[27] = second compound 0.0949 µM, first compound 0.316 µM
[28] = second compound 0.0949 µM, first compound 1 µM
[29] = second compound 0.0949 µM, first compound 3.16 µM
[30] = second compound 0.0949 µM, first compound 10 µM
[31] = second compound 0.3 µM, first compound 0.0316 µM
[32] = second compound 0.3 µM, first compound 0.1 µM
[33] = second compound 0.3 µM, first compound 0.316 µM
[34] = second compound 0.3 µM, first compound 1 µM
[35] = second compound 0.3 µM, first compound 3.16 µM
[36] = second compound 0.3 µM, first compound 10 µM
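Further: spheroids exposed to compound for seven days before readout.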
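Wherever viability, T/C is given: 100% = DMSO vehicle control wells.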

IC50 (second compound 0.000949 µM): > 10 µM
IC50 (second compound 0.003 µM): > 10 µM
IC50 (second compound 0.00949 µM): 9.66 µM
IC50 (second compound 0.03 µM): 8.56 µM
IC50 (second compound 0.0949 µM): 5.46 µM
IC50 (second compound 0.3 µM): 3.31 µM
SMILES: CC(C)NCC(C(=O)N1CCN(c2ncnc3c2C(C)CC3O)CC1)c1ccc(Cl)cc1 (stereo not drawn) + CCn1c(-c2cccnc2C(C)OC)c2c3cc(ccc31)N1CCOC(CC(NC(=O)C(C(C)C)N(C)C(=O)C3(F)CCN(C(=O)C#CC(C)(C)N(C)C)CC3)C(=O)N3CCCC(N3)C(=O)OCC(C)(C)C2)C1
viability, T/C [1]: 111%
viability, T/C [2]: 101%
viability, T/C [3]: 90.9%
viability, T/C [4]: 91.6%
viability, T/C [5]: 65.4%
viability, T/C [6]: 50.9%
viability, T/C [7]: 115%
viability, T/C [8]: 117%
viability, T/C [9]: 103%
viability, T/C [10]: 82.1%
viability, T/C [11]: 79.6%
viability, T/C [12]: 57.2%
viability, T/C [13]: 113%
viability, T/C [14]: 110%
viability, T/C [15]: 102%
viability, T/C [16]: 84.8%
viability, T/C [17]: 73%
viability, T/C [18]: 48.7%
viability, T/C [19]: 112%
viability, T/C [20]: 100%
viability, T/C [21]: 97.3%
viability, T/C [22]: 91.1%
viability, T/C [23]: 74.4%
viability, T/C [24]: 45.6%
viability, T/C [25]: 92%
viability, T/C [26]: 89.4%
viability, T/C [27]: 92.7%
viability, T/C [28]: 76.4%
viability, T/C [29]: 60.1%
viability, T/C [30]: 39.7%
viability, T/C [31]: 75%
viability, T/C [32]: 72.7%
viability, T/C [33]: 69.5%
viability, T/C [34]: 55.9%
viability, T/C [35]: 53.5%
viability, T/C [36]: 37.1%

IC50 (second compound 0.000949 µM): 0.0271 µM
IC50 (second compound 0.003 µM): 0.0238 µM
IC50 (second compound 0.00949 µM): 0.0238 µM
IC50 (second compound 0.03 µM): 0.021 µM
IC50 (second compound 0.0949 µM): 0.0151 µM
IC50 (second compound 0.3 µM): 0.00705 µM
SMILES: CC(C)n1nc(-c2ccc3oc(N)nc3c2)c2c(N)ncnc21 + CCn1c(-c2cccnc2C(C)OC)c2c3cc(ccc31)N1CCOC(CC(NC(=O)C(C(C)C)N(C)C(=O)C3(F)CCN(C(=O)C#CC(C)(C)N(C)C)CC3)C(=O)N3CCCC(N3)C(=O)OCC(C)(C)C2)C1
viability, T/C (second compound 0.000949 µM, first compound 0.000316 µM): 107%
viability, T/C (second compound 0.000949 µM, first compound 0.001 µM): 91.6%
viability, T/C (second compound 0.000949 µM, first compound 0.00316 µM): 87.2%
viability, T/C (second compound 0.000949 µM, first compound 0.01 µM): 68.7%
viability, T/C [1]: 46.4%
viability, T/C [2]: 20.5%
viability, T/C (second compound 0.003 µM, first compound 0.000316 µM): 106%
viability, T/C (second compound 0.003 µM, first compound 0.001 µM): 90.9%
viability, T/C (second compound 0.003 µM, first compound 0.00316 µM): 78.8%
viability, T/C (second compound 0.003 µM, first compound 0.01 µM): 70%
viability, T/C [7]: 44.8%
viability, T/C [8]: 20.4%
viability, T/C (second compound 0.00949 µM, first compound 0.000316 µM): 99.1%
viability, T/C (second compound 0.00949 µM, first compound 0.001 µM): 99.2%
viability, T/C (second compound 0.00949 µM, first compound 0.00316 µM): 86.2%
viability, T/C (second compound 0.00949 µM, first compound 0.01 µM): 75.1%
viability, T/C [13]: 41.3%
viability, T/C [14]: 17.7%
viability, T/C (second compound 0.03 µM, first compound 0.000316 µM): 103%
viability, T/C (second compound 0.03 µM, first compound 0.001 µM): 86.9%
viability, T/C (second compound 0.03 µM, first compound 0.00316 µM): 79.9%
viability, T/C (second compound 0.03 µM, first compound 0.01 µM): 72.1%
viability, T/C [19]: 36.8%
viability, T/C [20]: 17%
viability, T/C (second compound 0.0949 µM, first compound 0.000316 µM): 89.1%
viability, T/C (second compound 0.0949 µM, first compound 0.001 µM): 87.2%
viability, T/C (second compound 0.0949 µM, first compound 0.00316 µM): 86.5%
viability, T/C (second compound 0.0949 µM, first compound 0.01 µM): 55.6%
viability, T/C [25]: 35.5%
viability, T/C [26]: 16.2%
viability, T/C (second compound 0.3 µM, first compound 0.000316 µM): 74.9%
viability, T/C (second compound 0.3 µM, first compound 0.001 µM): 64%
viability, T/C (second compound 0.3 µM, first compound 0.00316 µM): 61.1%
viability, T/C (second compound 0.3 µM, first compound 0.01 µM): 46.3%
viability, T/C [31]: 30%
viability, T/C [32]: 13.6%

IC50 (second compound 0.000949 µM): > 10 µM
IC50 (second compound 0.003 µM): > 10 µM
IC50 (second compound 0.00949 µM): > 10 µM
IC50 (second compound 0.03 µM): > 10 µM
IC50 (second compound 0.0949 µM): > 10 µM
IC50 (second compound 0.3 µM): 5.64 µM
SMILES: CC(Nc1ccc2c(c1)OCCn1cc(N3C(=O)OCC3C(F)F)nc1-2)C(N)=O (stereo not drawn) + CCn1c(-c2cccnc2C(C)OC)c2c3cc(ccc31)N1CCOC(CC(NC(=O)C(C(C)C)N(C)C(=O)C3(F)CCN(C(=O)C#CC(C)(C)N(C)C)CC3)C(=O)N3CCCC(N3)C(=O)OCC(C)(C)C2)C1
viability, T/C [1]: 110%
viability, T/C [2]: 87%
viability, T/C [3]: 89.4%
viability, T/C [4]: 92.7%
viability, T/C [5]: 89.3%
viability, T/C [6]: 65.8%
viability, T/C [7]: 105%
viability, T/C [8]: 103%
viability, T/C [9]: 97.4%
viability, T/C [10]: 104%
viability, T/C [11]: 96.7%
viability, T/C [12]: 63.2%
viability, T/C [13]: 94.9%
viability, T/C [14]: 104%
viability, T/C [15]: 92.8%
viability, T/C [16]: 103%
viability, T/C [17]: 78.7%
viability, T/C [18]: 66.4%
viability, T/C [19]: 89.8%
viability, T/C [20]: 98.3%
viability, T/C [21]: 98.2%
viability, T/C [22]: 95.4%
viability, T/C [23]: 75.8%
viability, T/C [24]: 58.8%
viability, T/C [25]: 103%
viability, T/C [26]: 98.7%
viability, T/C [27]: 91%
viability, T/C [28]: 83.8%
viability, T/C [29]: 63.1%
viability, T/C [30]: 53%
viability, T/C [31]: 73.9%
viability, T/C [32]: 74.7%
viability, T/C [33]: 68%
viability, T/C [34]: 69.5%
viability, T/C [35]: 57.6%
viability, T/C [36]: 41.8%

IC50 (second compound 0.000949 µM): 3.86 µM
IC50 (second compound 0.003 µM): 2.55 µM
IC50 (second compound 0.00949 µM): 3.12 µM
IC50 (second compound 0.03 µM): 3.88 µM
IC50 (second compound 0.0949 µM): 3.03 µM
IC50 (second compound 0.3 µM): 1.97 µM
SMILES: C[C@@H](NC(=O)c1ncnc(N)c1Cl)c1ncc(C(=O)Nc2cc(C(F)(F)F)c(Cl)cn2)s1 + CCn1c(-c2cccnc2C(C)OC)c2c3cc(ccc31)N1CCOC(CC(NC(=O)C(C(C)C)N(C)C(=O)C3(F)CCN(C(=O)C#CC(C)(C)N(C)C)CC3)C(=O)N3CCCC(N3)C(=O)OCC(C)(C)C2)C1
viability, T/C [1]: 121%
viability, T/C [2]: 114%
viability, T/C [3]: 112%
viability, T/C [4]: 83.5%
viability, T/C [5]: 56.2%
viability, T/C [6]: 27.5%
viability, T/C [7]: 128%
viability, T/C [8]: 105%
viability, T/C [9]: 103%
viability, T/C [10]: 66.4%
viability, T/C [11]: 45.6%
viability, T/C [12]: 28.8%
viability, T/C [13]: 114%
viability, T/C [14]: 120%
viability, T/C [15]: 111%
viability, T/C [16]: 81.3%
viability, T/C [17]: 52.1%
viability, T/C [18]: 27.9%
viability, T/C [19]: 123%
viability, T/C [20]: 116%
viability, T/C [21]: 97.4%
viability, T/C [22]: 83.7%
viability, T/C [23]: 53.6%
viability, T/C [24]: 26.6%
viability, T/C [25]: 105%
viability, T/C [26]: 100%
viability, T/C [27]: 87.2%
viability, T/C [28]: 66.7%
viability, T/C [29]: 51.7%
viability, T/C [30]: 24.9%
viability, T/C [31]: 82.9%
viability, T/C [32]: 87.9%
viability, T/C [33]: 73.2%
viability, T/C [34]: 62.5%
viability, T/C [35]: 41.8%
viability, T/C [36]: 21.3%
